Source: patent US11753407B2, “Compounds for treating spinal muscular atrophy” (PTC Therapeutics, Inc., priority 2012, dated 2023)

Columns and labels:
[1] = tested on: Smn protein in SMA patient fibroblast cells (GM03813); test: Smn protein assay in cultured cells (SMN HTRF); format: cell-based, human; settings: SMA patient fibroblast cells, 48 hours; for EC1.5x for Smn protein expression: 7-point concentration curve, SMN HTRF, concentration producing 1.5 times Smn protein vs DMSO vehicle control; for maximum fold (Fold) increase of Smn protein: 7-point concentration data, fold relative to vehicle control
Summary of the method: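 SMA patient fibroblasts (5,000/well, DMEM-10% FBS) treated 48 h at 37° C with 7-point, 3.16-fold compound series in triplicate; lysates read by SMN HTRF (665/620 nm ratio). Fold Smn increase over DMSO vehicle derived; EC1.5× is concentration giving 1.5-fold Smn, with maximum fold also reported.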

[2] = tested on: SMN2 minigene mRNA (SMN2-A minigene) in HEK293H cells; test: SMN2 minigene mRNA splicing RT-qPCR assay in cultured cells; format: cell-based, human; settings: Homo sapiens, HEK293-H; concentration increasing full length SMN2 mRNA 1.5-fold relative to vehicle-treated cells; HEK293H cells with SMN2-A minigene, 24 hours, 7-point concentration data; read-out: EC1.5x for production of full length SMN2 mRNA
Summary of the method: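 HEK293H cells stably carrying SMN2-A minigene treated with compounds (7-point, 3.16-fold dilutions, duplicates) for 24 h at 37 °C. Full-length exon 7-containing minigene mRNA measured by multiplex RT-qPCR with GAPDH, normalized and expressed relative to vehicle (modified ΔΔCt); EC1.5× is concentration giving 1.5-fold increase.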

SMILES	melting point	EC1.5x for Smn protein expression [1]	maximum fold (Fold) increase of Smn protein [1]	EC (1.5-fold increase) [2] [µM]
Cc1cn2cc(-c3ccc4nc(C5=CCN(C)CC5)cc(=O)n4c3)ccc2n1 [Compound 376, 7-(2-methylimidazo[1,2-a]pyridin-6-yl)-2-(1-methyl-1,2,3,6-tetrahydropyridin-4-yl)-4H-pyrido[1,2-a]pyrimidin-4-one]	203 to 207 °C	*** (an EC1.5× between >0.3 μM and ≤1 μM is indicated by three stars (***))	*** (a fold increase between >1.35 and ≤1.5 is indicated by three stars (***))	< 0.1
COc1ccc(-c2ccc3nc(C4=CCN(C)CC4)cc(=O)n3c2)cc1OC [Compound 377, 7-(3,4-dimethoxyphenyl)-2-(1-methyl-1,2,3,6-tetrahydropyridin-4-yl)-4H-pyrido[1,2-a]pyrimidin-4-one]	149 to 152 °C	** (an EC1.5× between >1 μM and ≤3 μM is indicated by two stars (**))	**** (a fold increase between >1.5 and ≤1.65 is indicated by four stars (****))	0.3 to 1
CCCN1CC=C(c2cc(C)c3nc(-c4ccc(OC)c(OC)c4)cc(=O)n3c2)CC1 [Compound 378, 2-(3,4-dimethoxyphenyl)-9-methyl-7-(1-propyl-1,2,3,6-tetrahydropyridin-4-yl)-4H-pyrido[1,2-a]pyrimidin-4-one]	171 to 177 °C	** (an EC1.5× between >1 μM and ≤3 μM is indicated by two stars (**))	**** (a fold increase between >1.5 and ≤1.65 is indicated by four stars (****))	< 0.1
COc1ccc(-c2cc(=O)n3cc(C4=CCN(C5CCC5)CC4)cc(C)c3n2)cc1OC [Compound 379, 7-(1-cyclobutyl-1,2,3,6-tetrahydropyridin-4-yl)-2-(3,4-dimethoxyphenyl)-9-methyl-4H-pyrido[1,2-a]pyrimidin-4-one]	167 to 178 °C		*** (a fold increase between >1.35 and ≤1.5 is indicated by three stars (***))	0.1 to 0.3
Cc1nc2ccc(-c3cc(=O)n4cc(N5CCC(N)CC5)ccc4n3)cc2s1 [Compound 381, 7-(4-aminopiperidin-1-yl)-2-(2-methyl-1,3-benzothiazol-6-yl)-4H-pyrido[1,2-a]pyrimidin-4-one]	190 to 194 °C	* (An EC1.5× for Smn protein expression between >3 μM and ≤10 μM is indicated by one star (*))	*** (a fold increase between >1.35 and ≤1.5 is indicated by three stars (***))	0.1 to 0.3
Cc1nc2ccc(-c3cc(=O)n4cc(N5CCC(N)C5)ccc4n3)cc2s1 (stereo not drawn) [Compound 382, 7-(3-aminopyrrolidin-1-yl)-2-(2-methyl-1,3-benzothiazol-6-yl)-4H-pyrido[1,2-a]pyrimidin-4-one]	196 to 200 °C	*** (an EC1.5× between >0.3 μM and ≤1 μM is indicated by three stars (***))	**** (a fold increase between >1.5 and ≤1.65 is indicated by four stars (****))	< 0.1
Cc1nc2ccc(-c3cc(=O)n4cc(N5CC[C@@H](N(C)C)C5)ccc4n3)cc2s1 [Compound 383, 7-[(3R)-3-(dimethylamino)pyrrolidin-1-yl]-2-(2-methyl-1,3-benzothiazol-6-yl)-4H-pyrido[1,2-a]pyrimidin-4-one]	235 to 240 °C		** (a fold increase between >1.2 and ≤1.35 is indicated by two stars (**))	0.3 to 1
Cc1nc2ccc(-c3cc(=O)n4cc(C5=CCNCC5)ccc4n3)cc2s1 [Compound 384, 2-(2-methyl-1,3-benzothiazol-6-yl)-7-(1,2,3,6-tetrahydropyridin-4-yl)-4H-pyrido[1,2-a]pyrimidin-4-one]	124 to 126 °C	**** (an EC1.5x≤0.3 μM is indicated by four stars (****))	***** (a fold increase >1.65 is indicated by five stars (*****))	< 0.1
COCCN1CCN(c2ccc3nc(-c4cc(F)c5nc(C)cn5c4)cc(=O)n3c2)CC1 [Compound 385, 2-(8-fluoro-2-methylimidazo[1,2-a]pyridin-6-yl)-7-[4-(2-methoxyethyl)piperazin-1-yl]-4H-pyrido[1,2-a]pyrimidin-4-one]	258 to 262 °C	*** (an EC1.5× between >0.3 μM and ≤1 μM is indicated by three stars (***))	***** (a fold increase >1.65 is indicated by five stars (*****))	< 0.1
COc1ccc(-c2cc(=O)n3cc(C4=CCN(C5COC5)CC4)cc(C)c3n2)cc1OC [Compound 386, 2-(3,4-dimethoxyphenyl)-9-methyl-7-[1-(oxetan-3-yl)-1,2,3,6-tetrahydropyridin-4-yl]-4H-pyrido[1,2-a]pyrimidin-4-one]	180 to 195 °C		* (A maximum fold increase of ≤1.2 is indicated by one star (*))	0.3 to 1
COc1ccc(-c2cc(=O)n3cc(C4=CCN(C(C)C)CC4)cc(C)c3n2)cc1OC [Compound 387, 2-(3,4-dimethoxyphenyl)-9-methyl-7-[1-(propan-2-yl)-1,2,3,6-tetrahydropyridin-4-yl]-4H-pyrido[1,2-a]pyrimidin-4-one]	153 to 163 °C		** (a fold increase between >1.2 and ≤1.35 is indicated by two stars (**))	0.3 to 1
COc1ccc(-c2cc(=O)n3cc(C4=CCNCC4)c(C)cc3n2)cc1OC [Compound 389, 2-(3,4-dimethoxyphenyl)-8-methyl-7-(1,2,3,6-tetrahydropyridin-4-yl)-4H-pyrido[1,2-a]pyrimidin-4-one]	175 °C (dec.)		** (a fold increase between >1.2 and ≤1.35 is indicated by two stars (**))	1 to 3
COc1ccc(-c2cc(=O)n3cc(C4=CCN(C5CC5)CC4)cc(C)c3n2)cc1OC [Compound 390, 7-(1-cyclopropyl-1,2,3,6-tetrahydropyridin-4-yl)-2-(3,4-dimethoxyphenyl)-9-methyl-4H-pyrido[1,2-a]pyrimidin-4-one]	180 to 189 °C		* (A maximum fold increase of ≤1.2 is indicated by one star (*))	0.3 to 1
COc1ccc(-c2cc(=O)n3cc(C4=CCN(C)CC4)c(C)cc3n2)cc1OC [Compound 391, 2-(3,4-dimethoxyphenyl)-8-methyl-7-(1-methyl-1,2,3,6-tetrahydropyridin-4-yl)-4H-pyrido[1,2-a]pyrimidin-4-one]	174 to 178 °C		* (A maximum fold increase of ≤1.2 is indicated by one star (*))	1 to 3
Cc1nc2ccc(-c3cc(=O)n4cc(C5=CCN(C)CC5)ccc4n3)cc2s1 [Compound 392, 2-(2-methyl-1,3-benzothiazol-6-yl)-7-(1-methyl-1,2,3,6-tetrahydropyridin-4-yl)-4H-pyrido[1,2-a]pyrimidin-4-one]	170 to 172 °C		*** (a fold increase between >1.35 and ≤1.5 is indicated by three stars (***))	0.1 to 0.3
Cc1nc2ccc(-c3cc(=O)n4cc(C5=CCN(CCO)CC5)ccc4n3)cc2s1 [Compound 393, 7-[1-(2-hydroxyethyl)-1,2,3,6-tetrahydropyridin-4-yl]-2-(2-methyl-1,3-benzothiazol-6-yl)-4H-pyrido[1,2-a]pyrimidin-4-one]	178 to 180 °C	*** (an EC1.5× between >0.3 μM and ≤1 μM is indicated by three stars (***))	*** (a fold increase between >1.35 and ≤1.5 is indicated by three stars (***))	< 0.1
Cc1nc2ccc(-c3cc(=O)n4cc(C5=CCN(C(C)C)CC5)ccc4n3)cc2s1 [Compound 394, 2-(2-methyl-1,3-benzothiazol-6-yl)-7-[1-(propan-2-yl)-1,2,3,6-tetrahydropyridin-4-yl]-4H-pyrido[1,2-a]pyrimidin-4-one]	168 to 170 °C		** (a fold increase between >1.2 and ≤1.35 is indicated by two stars (**))	0.1 to 0.3
Cc1nc2ccc(-c3cc(=O)n4cc(C5=CCN(C6CC6)CC5)ccc4n3)cc2s1 [Compound 395, 7-(1-cyclopropyl-1,2,3,6-tetrahydropyridin-4-yl)-2-(2-methyl-1,3-benzothiazol-6-yl)-4H-pyrido[1,2-a]pyrimidin-4-one]	158 to 160 °C		** (a fold increase between >1.2 and ≤1.35 is indicated by two stars (**))	0.3 to 1
CCN1CC=C(c2ccc3nc(-c4ccc5nc(C)sc5c4)cc(=O)n3c2)CC1 [Compound 396, 7-(1-ethyl-1,2,3,6-tetrahydropyridin-4-yl)-2-(2-methyl-1,3-benzothiazol-6-yl)-4H-pyrido[1,2-a]pyrimidin-4-one]	128 to 130 °C	*** (an EC1.5× between >0.3 μM and ≤1 μM is indicated by three stars (***))	**** (a fold increase between >1.5 and ≤1.65 is indicated by four stars (****))	0.1 to 0.3
